# Data as given in patent US9759709B1, “Devices and methods to monitor HIV-infection in presence of substance of abuse and/or therapeutic agent” (THE FLORIDA INTERNATIONAL UNIVERSITY BOARD OF TRUSTEES, priority 2016, dated 2017).
# Where a name gives a salt, the structure may show the parent alone.
# Legend:
# Type in all cases: cell-based
# human astrocytes (HA) [1] = assay: MTT cell viability assay; settings: HA treated with Coc (1 μM), 7 days
# Method: The MTT cell viability assay was examined using a modified assay method as described by Rao et al (Kurapati et al. 2012). After 7 days of HIV-infection and/or treatment with an optimum concentration of Coc (1 μM), 6-well plates were given media change with 1 mL of medium. Then, 100 μL of MTT (100 mg MTT/20 ml PBS) was added to each well and the wells were incubated for 3 h at 37° C. Further, one volume of stop mix solution was added to each well. The plates were then rocked for about 2 h and centrifuged.
# The optical density of the solubilized formazan was determined spectrophotometrically measuring the absorbance at 550 nm after transferring into the 96-well plate. The optical density of formazan in each well is directly proportional to the cell viability and utilized for calculations.
# Considering cell viability as a major factor, HA toxicity was evaluated in terms of cell viability as a function of levels of HIV infection ranging from 10 ng/mL to 30 ng/mL using MTT assay.
# human astrocytes (HA) [2] = assay: EIS measurement of charge transfer resistance (Rct) of HA grown on IDE-Au cultureware chip
# Method: A cultureware chip (CC) comprising eight wells was procured from Applied Biophysics (#8WCP PET arrays) and used to grow HA for HIV infection and subsequent drug treatments. Each well (substrate area of 0.8 cm^2 and maximum volume of 600 μL) of the CC comprised a sensing substrate configured to have gold-based IDE (IDE-Au; surface area: 3.985 mm^2). In each well and on the sensing substrate, the IDE-Au array was useful to grow a large number of cells (e.g., approximately between 4000 and 8000) and designed in such a way to perform electrochemical measurements without fluctuation.
# EIS was conducted in 400 μL of 5 mM PBS (pH 7.4) comprising 5 mM Fe (II)/Fe(III) as redox moieties using VMP3, a multi-channel potentiostat/galvanostats obtained from BioLogic Instruments. Each EIS measurement was made in sets of triplet and an average was used for analytical interpretation. Before processing the CC for cell culture, EIS measurement was made on […] each well. […] The cyclic voltammetry (CV) studies were also performed on CC using identical experimental conditions to validate results obtained using EIS.
# A portion of the Nyquist plot of cells grown on IDE-Au takes on a semicircle shape at higher frequency that corresponds to the electron-transfer limited process. The […] of this semicircle represents the charge transfer resistance, Rct, of the system. The semicircle is followed by a linear portion of the curve (45° to the axes) corresponding to the diffusion-controlled electron transfer process (Kaushik et al. 2010).
# For a biological system, the Rct value […] intra/extracellular cell properties, such as the electrical and physical properties of the HA. As a result, Rct was selected as the parameter for the assessment of HIV infection in HA and on treatments with Coc and drugs specific to both HIV and Coc. The EIS was performed on HA as a function of HIV infection doses which varies from 10 ng/mL to 30 ng/mL (FIG. 2A (b)).
# (§1) Primary HA were grown in the eight-well CC plate at a concentration of approximately 8,000 cells and infected with different concentrations (ranging from 10 ng/mL to 30 ng/mL) of HIV-1 using a previously described protocol (Atluri et al. 2013; Eugenin and Berman 2007). Each well was used for a separate treatment.
# After overnight infection, unabsorbed virus was washed away using PBS (pH 7.4), and the infected cells were cultured for 5 days in the presence or absence of Coc (1 μM). RA (2 μM) was added to the designated wells (specific to Coc) 2 h before each treatment involving Coc. The optimized dose of Coc selected for this study was 1 μM, which was based on our dose response study for cytotoxicity and HIV infectivity (Roy et al. 2015).
# On the 5th day, 100 μg (100 μL of 1 mg/mL) of Tef was added to wells specific to HIV and incubated for 7 days in total. The dose of Tef was selected on the basis of its toxicity and efficacy as reported in our previous publication (Jayant et al. 2015).
# To evaluate variations in HIV infection as a function of the Rct value (FIGS. 3A-3D) measured using EIS, an experiment was planned in 9 wells as described in FIGS. 3A-3D.
# HIV-1Ba-L (clade B) = assay: p24 antigen estimation by ELISA (level of HIV infection in HA)
# From the text: Primary HA were purchased from ScienCell Research Laboratories (Carlsbad, Calif.; Cat. #1800-5) and grown in astrocyte medium purchased from ScienCell Laboratories (Cat. #1801) comprising 2% of fetal bovine serum (ScienCell Cat. #0010), astrocyte growth supplement (ScienCell Cat. #1852), and penicillin/streptomycin (ScienCell Cat. #0503). HIV-1Ba-L (clade B) (NIH AIDS Reagent Program Cat. #510) was obtained through AIDS Research and Reference Reagent Program, Division of AIDS, NIAID, NIH. The Cocaine hydrochloride-Sigma (Cat# C5776), rimcazole dihydrochloride-Tocris (1497, CAS#75859-03-9), and tenofovir disoproxil fumarate-Sigma (1643656; CAS #202138-50-9) were also obtained for this research.
# as §1, with “treatment. […]” for “treatment.”
# 450 μl of undiluted HA culture supernatant was mixed with 50 μL of lysing buffer. […] After incubation, 100 μL of stop solution was added to each well and the optical density of each well was read at 450 nm using a microplate reader (Yndart et al. 2015). […]
smiles,measurement,setting,value
"COC(=O)[C@H]1[C@@H](OC(=O)c2ccccc2)C[C@@H]2CC[C@H]1N2C [Coc, cocaine]",cell viability,human astrocytes (HA) [1],~85%
same,Rct,"human astrocytes (HA) [2]; HA+Coc (1 μM), normal HA 48",21 KS
same,Rct,human astrocytes (HA) [2]; HA+HIV+Coc,140 KS
"CC(C)OC(=O)OCOP(=O)(CO[C@H](C)Cn1cnc2c(N)ncnc21)OCOC(=O)OC(C)C.O=C(O)/C=C/C(=O)O [Tef, tenofovir disoproxil fumarate]",level of HIV infection (p24 antigen),HIV-1Ba-L (clade B); HIV-infected HA treated with Tef (100 μg) vs HIV-infected cells alone,significant reduction
same,Rct,human astrocytes (HA) [2]; HA+HIV+Coc+Tef,93 KS
same,Rct,"human astrocytes (HA) [2]; HIV-infected HA (20 ng/mL) after Tef, HA+HIV without drug 210",150 KΩ
"C[C@@H]1CN(CCCn2c3ccccc3c3ccccc32)C[C@H](C)N1 [RA, rimcazole dihydrochloride]",level of HIV infection (p24 antigen),HIV-1Ba-L (clade B); HIV-infected HA with Coc and RA (2 μM) vs cells treated with HIV and Coc alone,not statistically significant
same,Rct,human astrocytes (HA) [2]; HA+Coc+RA (2 μM),34 KΩ
same,Rct,human astrocytes (HA) [2]; HA+HIV+Coc+RA,105 KΩ
